Literature values in patent US20090258897A1, “Substituted benzimidazoles” (Auspex Pharmaceuticals, Inc., priority 2008, published 2009).

Biological target: T1, gastric H^+, K^+-ATPase (Homo sapiens, UniProt P20648)
T1 construct: host or cells: healthy volunteers (in vivo, endogenous gastric enzyme)

[1] = healthy volunteers, even after stoppage of the drug

T1 sequence (P20648 whole entry): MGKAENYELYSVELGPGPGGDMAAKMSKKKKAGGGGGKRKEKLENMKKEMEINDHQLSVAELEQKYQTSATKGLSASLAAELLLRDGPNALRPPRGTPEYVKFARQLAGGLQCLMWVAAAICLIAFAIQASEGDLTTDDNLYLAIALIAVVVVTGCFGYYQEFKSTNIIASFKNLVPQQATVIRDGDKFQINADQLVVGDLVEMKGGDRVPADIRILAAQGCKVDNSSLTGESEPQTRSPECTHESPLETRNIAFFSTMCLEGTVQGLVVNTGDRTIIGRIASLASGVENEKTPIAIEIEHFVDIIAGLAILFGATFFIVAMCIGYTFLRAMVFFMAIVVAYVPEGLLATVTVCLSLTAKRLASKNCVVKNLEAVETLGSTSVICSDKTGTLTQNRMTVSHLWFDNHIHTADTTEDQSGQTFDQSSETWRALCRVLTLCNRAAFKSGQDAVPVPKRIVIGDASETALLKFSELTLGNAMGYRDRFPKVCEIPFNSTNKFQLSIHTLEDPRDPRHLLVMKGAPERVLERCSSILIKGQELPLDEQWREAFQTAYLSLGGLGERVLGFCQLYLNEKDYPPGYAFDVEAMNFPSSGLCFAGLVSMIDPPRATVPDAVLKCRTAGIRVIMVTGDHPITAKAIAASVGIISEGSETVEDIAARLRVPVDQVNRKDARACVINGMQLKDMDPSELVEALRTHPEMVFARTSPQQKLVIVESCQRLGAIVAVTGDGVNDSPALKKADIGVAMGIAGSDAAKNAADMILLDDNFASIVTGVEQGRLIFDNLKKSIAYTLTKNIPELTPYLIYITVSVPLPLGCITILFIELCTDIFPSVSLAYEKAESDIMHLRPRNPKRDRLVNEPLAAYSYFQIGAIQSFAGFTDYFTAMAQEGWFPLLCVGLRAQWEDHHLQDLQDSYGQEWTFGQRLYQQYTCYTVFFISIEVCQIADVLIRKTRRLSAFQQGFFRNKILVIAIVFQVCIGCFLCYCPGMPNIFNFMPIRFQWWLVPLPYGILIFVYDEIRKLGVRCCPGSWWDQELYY
T1 sequence (P51164 whole entry partner): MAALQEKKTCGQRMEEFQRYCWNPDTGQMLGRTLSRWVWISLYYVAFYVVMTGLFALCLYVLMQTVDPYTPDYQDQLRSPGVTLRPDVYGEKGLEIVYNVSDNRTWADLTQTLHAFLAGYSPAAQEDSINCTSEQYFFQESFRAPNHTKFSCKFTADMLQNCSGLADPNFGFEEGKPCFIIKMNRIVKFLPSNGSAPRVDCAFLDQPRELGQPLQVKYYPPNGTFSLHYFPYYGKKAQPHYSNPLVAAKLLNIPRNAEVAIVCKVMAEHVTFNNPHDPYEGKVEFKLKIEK

## COc1ccc2[nH]c([S+]([O-])Cc3ncc(C)c(OC)c3C)nc2n1 (stereo not drawn) [tenatoprazole, 5-methoxy-2-(4-methoxy-3,5-dimethyl-pyridin-2-ylmethane-sulfinyl)-1H-imidazo[4,5-b]pyridine]
Clinical trials
  potency compared to other proton pump inhibitors (PPIs) such as esomeprazole: improved potency
[1]
  duration of acid suppression as compared with other PPIs: prolonged duration of acid suppression
  nocturnal acid breakthrough as compared with other PPIs: shorter nocturnal acid breakthrough
